Results published in US20090170900A1, “DOSING REGIMEN FOR WEIGHT LOSS” (UTI LIMITED PARTNERSHIP, priority 2005, published 2009).
Like-named read-outs stand apart in the source and are kept apart here.

Key:
[1] = Daily food intake with administration every 5 days (Example 3); conditions: 5 mg/kg every 5 days
Protocol: (§3) Food was available for 17 h each day starting at 16:00 h. Food and water were presented in inverted glass bottles that were attached to the outside of the cage in order to minimize spillage. […] Food intake and body weight measurements were recorded daily.

[2] = Body weight change with administration every 5 days (Example 3); conditions: 5 mg/kg every 5 days, p<0.05
Protocol: as §3

[3] = Weight gain or loss after a single dose of 1.25 or 2.5 mg/kg (Example 2); type: in vivo, rat; conditions: for weight gain or loss: over 10 days
Protocol: (§1) Food intake and weight measurements were taken daily. […] Animals were assigned into vehicle, 1.25 or 2.5 mg/kg conditions via a counterbalance design.

[4] = Body weight gain with daily or twice-weekly intragastric injection (Example 4); type: in vivo, rat; conditions: low doses by the intragastric route, 28 days
Description: (§2) Each of the rats was assigned to one of five groups. […] These groups were compared to the group with daily injection of vehicle (n=8).

[5] = Food intake after a single intraperitoneal injection in prefed, moderately obese male Lewis rats (Example 1); conditions: for cumulative food intake: AM-251 5 mg/kg i.p., Ensure Plus
Protocol: Vanilla-flavoured Ensure Plus (Ross Laboratories, Saint-Laurent, Quebec, Canada) was used as food on account of its palatability, and to reduce the risk of spillage. […] Food and water were presented in inverted glass bottles that attached to the outside of the cage. Animals were habituated to handling and testing procedures 3 weeks prior to testing on liquid diet.
The initial food presented between 1600 and 1700 h (prefeed) was designed to produce partial satiety as previously described in C.
Food bottles were put back on at 1800 h. Food intake measurements were taken daily as well as at 1900, 2000, and 2100 h.

[6] = cited from earlier work
[7] = Daily food intake after a single dose of 1.25 or 2.5 mg/kg (Example 2); type: in vivo, rat
Protocol: as §1

[8] = 5 and 20 mg doses; human trials; cited from earlier work
[9] = determined from behavioral tests; cited from earlier work
[10] = cited from earlier work; remark: listed apart in the source
[11] = Two-flavored conditioned aversion test (Example 4); type: in vivo, rat; conditions: for short-term percentage preference for the primary flavor associated with drug delivery: 15 min; for percentage daily preference for the flavor associated with drug delivery: 17 hr
Description: Another objective was to determine whether the animals were responding negatively to the drug as determined by the use of a two-flavored conditioned aversion test in which the drug was repeatedly paired with one flavor of liquid diet while the vehicle injection was paired with the other flavor. There were ten training trials before the test procedure was done so the rats had sufficient time to make associations between flavors and internal consequences. This test procedure involved giving the rats two bottles, containing the liquid diets flavored with chocolate and strawberry, and determining the individual rat's preference for one or the other of the flavors. A conditioned aversion was established if the rat chose against the flavor associated with the drug injections.
as §2
This conditioning procedure was done for 10 exposures before the actual conditioned aversion test was done on day 33. This aversion test was done by allowing each rat exposure for 17 hrs to two bottles, one containing chocolate-flavored and the other containing strawberry-flavored liquid diet. No drugs or vehicles were injected on this day. […] Moreover, the rats were forced to taste both flavors for three or four licks before the diets were made freely available to them so the rats were fully aware that two flavors were present. […] The 17-hour tests allowed repeated association between the internal consequences of the drug and the taste of the drug associated primary flavor.

[12] = animal model of temporal lobe epilepsy; cited from earlier work
[13] = mice; cited from earlier work
CB1 = CB1 (Homo sapiens, UniProt P21554); conditions: cited from earlier work
Chain of CB1 (P21554 whole entry, species assumed): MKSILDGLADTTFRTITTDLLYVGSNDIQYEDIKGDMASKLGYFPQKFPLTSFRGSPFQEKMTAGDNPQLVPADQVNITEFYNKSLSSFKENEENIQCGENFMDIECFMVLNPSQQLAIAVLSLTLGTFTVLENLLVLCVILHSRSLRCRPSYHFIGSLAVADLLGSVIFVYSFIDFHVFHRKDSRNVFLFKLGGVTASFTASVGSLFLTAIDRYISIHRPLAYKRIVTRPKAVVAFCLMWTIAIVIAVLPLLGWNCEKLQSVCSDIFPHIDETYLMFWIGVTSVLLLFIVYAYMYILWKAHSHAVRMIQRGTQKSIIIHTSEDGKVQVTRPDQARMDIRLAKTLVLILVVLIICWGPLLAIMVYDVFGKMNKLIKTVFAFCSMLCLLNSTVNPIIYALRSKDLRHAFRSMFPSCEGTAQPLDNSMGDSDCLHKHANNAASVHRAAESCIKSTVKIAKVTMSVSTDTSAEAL

[14] = rats injected daily (intragastric)

## Cc1c(C(=O)NN2CCCCC2)nn(-c2ccc(Cl)cc2Cl)c1-c1ccc(I)cc1 [AM-251, N-(piperidin-1-yl)-5-(4-iodophenyl)-1-(2,4-dichlorophenyl)-4-methyl-1H-pyrazole-3-carboxamide]
[1]
  days on which food intake was significantly reduced: days 1-4, and days 6-15
  time that reductions in food intake continued after the last treatment: five
[1]; vs vehicle, p<0.05
  duration of significant reductions in food intake after the first dose: 4 days
[2]; Newman-Keuls multiple comparison test
  period of significant differences in weight change vs vehicle: day 1 to day 24
[2]; unpaired t-test, last administration on day 11
  period of significant reductions in weight gain: day 1 until day 27
[3]; 1.25 mg/kg single dose
  weight gain or loss: 2.5 ± 2.0 g
[3]; 2.5 mg/kg single dose
  weight gain or loss: -5.1 ± 2.1 g
[3]; lowest dose, 1.25 mg/kg
  duration of weight loss compared with duration of reduced food intake: the duration of weight loss exceeded the duration of reduced food intake
[4]
  effect on body weight gain: significant slowing in weight gain
[5]; 5 mg/kg i.p., day of injection
  daily food intake: 36.7 ± 3.3 g
[5]; 5 mg/kg i.p., last day of significant reduction (day before the next drugs were given)
  daily food intake: 47.0 ± 2.5 g
[5]; 5 mg/kg i.p., starting on the day of injection
  duration of significant reduction in daily food intake: 6 days
[5]; 1 h of testing
  cumulative food intake: no intake
[5]; 2 h of testing
  cumulative food intake: 1.3 ± 0.8 g
[5]; 3 h of testing
  cumulative food intake: 3.3 ± 1.4 g
[6]; 3 mg/kg daily, mouse
  time of repeated daily administration after which changes in food intake were non-significant: 8 days
[6]; approximately 10 mg/kg daily
  effect of stopping daily doses: significant rebound hyperphagia and a rapid return in body weight
[7]; 1.25 mg/kg or 2.5 mg/kg single dose
  reductions in food intake, dose relation: dose dependent
[7]; 2.5 mg/kg single dose, significant starting the day of administration, p<0.001
  duration of significant reductions in food intake after the day of administration: 4 days

## Cc1c(C(=O)NN2CCCCC2)nn(-c2ccc(Cl)cc2Cl)c1-c1ccc(Cl)cc1 [rimonabant, N-(piperidin-1-yl)-5-(4-chlorophenyl)-1-(2,4-dichlorophenyl)-4-methyl-1H-pyrazole-3-carboxamide]
[8]
  most common side effects: nausea, dizziness, arthralgia and diarrhea
[4]
  effect on body weight gain: significant slowing in weight gain
[9]
  predicted half-life: 22 h
[10]; approximately 10 mg/kg daily
  effect of stopping daily doses: significant rebound hyperphagia and a rapid return in body weight
[10]; continued treatment, rats
  time of treatment after which the anorectic effect waned: 5 days
[11]; [14]
  short-term percentage preference for the primary flavor associated with drug delivery: 48%
  percentage daily preference for the flavor associated with drug delivery: 67%
[11]; rats injected twice-weekly (intragastric)
  short-term percentage preference for the primary flavor associated with drug delivery: 44%
[11]; rats injected biweekly (intragastric)
  percentage daily preference for the flavor associated with drug delivery: 50%
[12]
  frequency of protracted seizures: significantly higher frequency of protracted seizures
[13]
  damage in response to an inflammatory stimulus vs vehicle-treated controls: significantly more damage

## CN=C(NS(=O)(=O)c1ccc(Cl)cc1)N1C[C@H](c2ccccc2)C(c2ccc(Cl)cc2)=N1 [SLV-319]
CB1
  CB1 antagonist activity and selectivity: potent, CB1 selective antagonists

## Cc1c(C(=O)NN2CCOCC2)nn(-c2ccc(Cl)cc2Cl)c1-c1ccc(I)cc1 [AM 281, N-(Morpholin-1-yl)-1-(2,4-dichlorophenyl)-5-(4-iodophenyl)-4-methyl-1H-pyrazole-3-carboxamide]
CB1
  CB1 antagonist activity and selectivity: potent, CB1 selective antagonists
